Columns and labels:
[1] = Thermal activity by microcalorimetry; assay type: physicochemical; conditions: microcalorimeter at 25° C., scanned from about 30% to about 90% relative humidity
Method: To confirm that the salbutamol sulphate had been converted to the desired low energy, crystalline form i.e. had been annealed, the thermal activity and the water content of the treated salbutamol sulphate compared to untreated salbutamol sulphate was measured using standard microcalorimetry techniques and moisture sorption techniques respectively. A Hart Scientific Microcalorimeter (model 4400) was operated at 25° C. with a water adsorption unit and scanned from about 30% to about 90% relative humidity over a 11.5 hour period. Thermal equilibration time was 1 to 2 hours.

[2] = Water content by vacuum balance moisture sorption; assay type: physicochemical; conditions: for water content: typical/normal value stated in description
Method: To confirm that the salbutamol sulphate had been converted to the desired low energy, crystalline form i.e. had been annealed, the thermal activity and the water content of the treated salbutamol sulphate compared to untreated salbutamol sulphate was measured using standard microcalorimetry techniques and moisture sorption techniques respectively.
A VTI Corp vacuum balance moisture sorption apparatus (model MB300G) was operated at 25° C., and scanned from about 20% to about 90% relative humidity, total scan time about 15 hours. Drying was accomplished at 35° C. under vacuum for approximately 1 hour before the equilibrium condition used for the scans of 3 micrograms/6 minutes was achieved. This same equilibrium weight change criterion was used for the sorption measurements.

[3] = listed as Particulate salbutamol sulphate

Substance | thermal activity (heat rate) [1] | water content ([2]; listed as annealed salbutamol sulphate) | thermal activity (heat rate) [1, 3] | moisture content (moisture sorption profile, % weight gain against relative humidity) ([2]; 25° C., scanned from about 20% to about 90% relative humidity) | water content [2, 3] [% by weight]
salbutamol sulphate [Example 4] | lacks significant thermal activity |  |  |  | 
salbutamol sulphate [treated salbutamol sulphate] | absent | less than 0.4 % by weight |  |  | 
salbutamol sulphate [untreated salbutamol sulphate, reference compound] | exothermic rise in heat rate up to approximately 55% relative humidity followed by a large endothermic response |  | significantly greater thermal activity | significantly larger moisture content | ≥ 0.5

Other lines, results leading:

thermal activity (heat rate) [1] | water content ([2]; listed as annealed salbutamol sulphate) | thermal activity (heat rate) [1, 3] | moisture content (moisture sorption profile, % weight gain against relative humidity) ([2]; 25° C., scanned from about 20% to about 90% relative humidity) | water content [2, 3] [% by weight] | Substance
lack significant thermal activity |  |  |  |  | salbutamol sulphate [Example 2]
lack significant thermal activity |  |  |  |  | salbutamol sulphate [Example 3]

From patent publication US6656453B2, “Medicaments” (SmithKline Beecham Corporation, priority 1995, dated 2003)
